From US8952024B2, “Herbicidal pyrimidone derivatives” (E I du Pont de Nemours and Company, priority 2009, dated 2015)

What was measured:
Type in all cases: in vivo
[1] = test system: wheat (Triticum aestivum); assay: Test A pre-/postemergence plant response
Procedure, shortened: (§1)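 Seeds planted in loam soil/sand blend; test chemicals in non-phytotoxic solvent mixture with surfactant applied as directed soil spray preemergence and, concurrently, postemergence to plants 2–10 cm tall at one- to two-leaf stage. Greenhouse ~10 days; visual injury vs untreated controls, 0 (no effect) to 100 (complete control).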

[2] = test system: giant foxtail (Setaria faberii); assay: Test A pre-/postemergence plant response
Procedure, shortened: as §1

[3] = test system: velvetleaf (Abutilon theophrasti); assay: Test A pre-/postemergence plant response
Procedure, shortened: as §1

[4] = test system: morningglory (Ipomoea spp.); assay: Test A pre-/postemergence plant response
Procedure, shortened: as §1

[5] = test system: barnyardgrass (Echinochloa crus-galli); assay: Test A pre-/postemergence plant response
Procedure, shortened: as §1

corn (Zea mays) = assay: Test A pre-/postemergence plant response
Procedure, shortened: as §1

[6] = test system: large crabgrass (Digitaria sanguinalis); assay: Test A pre-/postemergence plant response
Procedure, shortened: as §1

[7] = test system: pigweed (Amaranthus retroflexus); assay: Test A pre-/postemergence plant response
Procedure, shortened: as §1

[8] = test system: ducksalad (Heteranthera limosa); assay: Test B flooded paddy test; settings: for Plant response rating, Flood, Ducksalad: 250 g ai/ha, flooded paddy test, visual rating on 0 to 100 scale (0 no effect, 100 complete control) after 13 to 15 days; for Plant response rating, Ducksalad: Flood (flooded paddy test), 62 g ai/ha, scale of 0 to 100 where 0 is no effect and 100 is complete control, 13 to 15 days
Procedure, shortened: (§2)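 Greenhouse-held for 13 to 15 days, treated pots were compared visually with controls and scored 0–100 (0, no effect). Treatment had been made into paddy water kept at 3 cm above the soil, with plants at the 2-leaf stage.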

[9] = test system: barnyardgrass (Echinochloa crus-galli); assay: Test B flooded paddy test; settings: for Plant response rating, Flood, Barnyardgrass: 250 g ai/ha, flooded paddy test, visual rating on 0 to 100 scale (0 no effect, 100 complete control) after 13 to 15 days; for Plant response rating, Barnyardgrass: Flood (flooded paddy test), 62 g ai/ha, scale of 0 to 100 where 0 is no effect and 100 is complete control, 13 to 15 days
Procedure, shortened: as §2

[10] = test system: umbrella sedge (Cyperus difformis); assay: Test B flooded paddy test; settings: for Plant response rating, Flood, Sedge, Umbrella: 250 g ai/ha, flooded paddy test, visual rating on 0 to 100 scale (0 no effect, 100 complete control) after 13 to 15 days; for Plant response rating, Sedge, Umbrella: Flood (flooded paddy test), 62 g ai/ha, scale of 0 to 100 where 0 is no effect and 100 is complete control, 13 to 15 days
Procedure, shortened: as §2

rice (Oryza sativa) = assay: Test B flooded paddy test; settings: for Plant response rating, Flood, Rice: 250 g ai/ha, flooded paddy test, visual rating on 0 to 100 scale (0 no effect, 100 complete control) after 13 to 15 days; for Plant response rating, Rice: Flood (flooded paddy test), 62 g ai/ha, scale of 0 to 100 where 0 is no effect and 100 is complete control, 13 to 15 days
Procedure, shortened: as §2

[11] = Postemergence, 125 g ai/ha, 0 to 100 scale where 0 is no effect and 100 is complete control
[12] = Postemergence, 500 g ai/ha, 0 to 100 scale, 0 = no effect, 100 = complete control, approx. ten days
[13] = Preemergence, 125 g ai/ha, 0 to 100 scale, 0 = no effect, 100 = complete control
[14] = Preemergence, 500 g ai/ha, visual injury, 0 to 100 scale (0 no effect, 100 complete control), approx. ten days

SMILES: CCCc1ncc(C(=O)C2=C(O)CCCC2=O)c(=O)n1CC1CCCO1 (stereo not shown) [Compound 74]
- Plant response rating, Wheat [1, 11]: 0
- Plant response rating, Wheat [1, 12]: 20
- Plant response rating, Wheat [1, 13]: 0
- Plant response rating, Wheat [1, 14]: 0
- Plant response rating, Foxtail, Giant [2, 11]: 40
- Plant response rating, Foxtail, Giant [2, 12]: 80
- Plant response rating, Foxtail, Giant [2, 13]: 0
- Plant response rating, Foxtail, Giant [2, 14]: 40
- Plant response rating, Velvetleaf [3, 11]: 90
- Plant response rating, Velvetleaf [3, 12]: 100
- Plant response rating, Velvetleaf [3, 13]: 70
- Plant response rating, Velvetleaf [3, 14]: 90
- Plant response rating, Morningglory [4, 11]: 90
- Plant response rating, Morningglory [4, 12]: 100
- Plant response rating, Morningglory [4, 13]: 40
- Plant response rating, Morningglory [4, 14]: 60
- Plant response rating, Barnyardgrass [5, 11]: 80
- Plant response rating, Barnyardgrass [5, 12]: 90
- Plant response rating, Barnyardgrass [5, 13]: 30
- Plant response rating, Barnyardgrass [5, 14]: 60
- Plant response rating, Corn (corn (Zea mays); [11]): 0
- Plant response rating, Corn (corn (Zea mays); [12]): 20
- Plant response rating, Corn (corn (Zea mays); [13]): 0
- Plant response rating, Corn (corn (Zea mays); [14]): 0
- Plant response rating, Crabgrass, Large [6, 11]: 90
- Plant response rating, Crabgrass, Large [6, 12]: 90
- Plant response rating, Crabgrass, Large [6, 13]: 70
- Plant response rating, Crabgrass, Large [6, 14]: 90
- Plant response rating, Pigweed [7, 11]: 100
- Plant response rating, Pigweed [7, 12]: 100
- Plant response rating, Pigweed [7, 13]: 90
- Plant response rating, Pigweed [7, 14]: 100
- Plant response rating, Flood, Ducksalad [8]: 0
- Plant response rating, Ducksalad [8]: 0
- Plant response rating, Flood, Barnyardgrass [9]: 40
- Plant response rating, Barnyardgrass [9]: 0
- Plant response rating, Flood, Sedge, Umbrella [10]: 60
- Plant response rating, Sedge, Umbrella [10]: 30
- Plant response rating, Flood, Rice (rice (Oryza sativa)): 0
- Plant response rating, Rice (rice (Oryza sativa)): 0

SMILES: CCCn1c(-c2cccs2)ncc(C(=O)C2=C(O)CCCC2=O)c1=O [Compound 77]
- Plant response rating, Wheat [1, 11]: 0
- Plant response rating, Wheat [1, 12]: 0
- Plant response rating, Wheat [1, 13]: 0
- Plant response rating, Wheat [1, 14]: 0
- Plant response rating, Foxtail, Giant [2, 11]: 50
- Plant response rating, Foxtail, Giant [2, 12]: 70
- Plant response rating, Foxtail, Giant [2, 13]: 0
- Plant response rating, Foxtail, Giant [2, 14]: 20
- Plant response rating, Velvetleaf [3, 11]: 100
- Plant response rating, Velvetleaf [3, 12]: 100
- Plant response rating, Velvetleaf [3, 13]: 70
- Plant response rating, Velvetleaf [3, 14]: 100
- Plant response rating, Morningglory [4, 11]: 90
- Plant response rating, Morningglory [4, 12]: 100
- Plant response rating, Morningglory [4, 14]: 70
- Plant response rating, Barnyardgrass [5, 11]: 80
- Plant response rating, Barnyardgrass [5, 12]: 90
- Plant response rating, Barnyardgrass [5, 13]: 20
- Plant response rating, Barnyardgrass [5, 14]: 50
- Plant response rating, Corn (corn (Zea mays); [11]): 0
- Plant response rating, Corn (corn (Zea mays); [12]): 20
- Plant response rating, Corn (corn (Zea mays); [13]): 0
- Plant response rating, Corn (corn (Zea mays); [14]): 0
- Plant response rating, Crabgrass, Large [6, 11]: 60
- Plant response rating, Crabgrass, Large [6, 12]: 80
- Plant response rating, Crabgrass, Large [6, 13]: 50
- Plant response rating, Crabgrass, Large [6, 14]: 90
- Plant response rating, Pigweed [7, 11]: 100
- Plant response rating, Pigweed [7, 12]: 100
- Plant response rating, Pigweed [7, 13]: 80
- Plant response rating, Pigweed [7, 14]: 90
- Plant response rating, Flood, Ducksalad [8]: 40
- Plant response rating, Ducksalad [8]: 30
- Plant response rating, Flood, Barnyardgrass [9]: 65
- Plant response rating, Barnyardgrass [9]: 30
- Plant response rating, Flood, Sedge, Umbrella [10]: 40
- Plant response rating, Sedge, Umbrella [10]: 40
- Plant response rating, Flood, Rice (rice (Oryza sativa)): 15
- Plant response rating, Rice (rice (Oryza sativa)): 0
